{"source": "patent US9029410B2", "about": "“Pharmaceutical compositions for the treatment of movement disorders” (Sarah Herzog Memorial Hospital Ezrath Nashim Association, priority 2003, dated 2015)", "key": {"[1]": {"system": "inpatients with treatment-resistant schizophrenia", "settings": "glycine 0.8 g/kg/day; 2 patients; ceased following discontinuation", "description": "Three of the 14 patients who completed the study were women and 11 were men. Their mean age was 46.5 years (SD=9.6), the mean duration of their illness was 25.8 years (SD=11.0) and the mean duration of their current hospitalization was 3.0 years (SD=3.7)."}, "[2]": {"system": "haloperidol-treated Sprague-Dewley rats", "protocol": "In this model, animals are treated chronically with antipsychotics and their vacuous chewing motions are assessed by observation.\nSprague-Dewley rats (Harlan Laboratories, Jerusalem, Israel) weighing 150 to 170 g. were used. The rats were housed in polycarbonate cages (4 in each cage), maintained under a 12 hour-12 hour dark-light (04.00-16.00 hours) cycle, and were allowed water ad libitum. In order to limit neuroleptic-induced weight gain, the food was restricted to 15 g. pellets per animal per day, as used by Andreassen et al (1996). Rats were weighed biweekly throughout the study. Room temperature was maintained at 22±2° C. All procedures were conducted in accordance with local and international laws for the care and use of laboratory animals.\nFor two weeks prior to the first drug injection, animals were handled daily and habituated to the animal colony and the procedures related to drug administration and video recording situation. Subsequently (week 0), rats underwent a behavior video recording session following which they were randomized to a haloperidol treatment and a control group. The rats in the treatment group received an intramuscular injection in the thigh muscles with haloperidol decanoate (Pericate, Unipharm Ltd., Tel Aviv, Israel), 100 mg/ml in sesame oil, at a dose of 0.35 mg/kg. The control rats were similarly injected with an equal volume of phosphate buffered saline (PBS). Twenty-three G hypodermic needles were used for all injections. […]\nRats underwent a video recorded behavior assessment session 30-150 minutes following the injection. Two weeks after the test day (i.e., post-test day), the video recorded behavior assessment session was repeated in order to investigate longer-term effects of the experimental treatments. […]\nA trained observer, unaware of the treatment received by the rats, scored the behavior while watching the videotapes. […] The statistical significance of interaction of the between group factor and the repeated measures factor is determined in the [sequence] software package using the Rao R statistic and the F distribution. […]"}, "schizophrenia patients [3]": {"system": "schizophrenia patients", "settings": "prior study, Heresco-Levy et al., 1999, Table 3, cited from earlier work"}, "[4]": {"system": "inpatients with treatment-resistant schizophrenia", "text": "The study was approved by the appropriate institutional review boards. Seventeen stable inpatients meeting DSM-IV criteria for schizophrenia and free of other axis I diagnoses or significant medical illness were enrolled in the study. Diagnosis was established on the basis of semistructured psychiatric interviews, review of all available medical records, and confirmation by two board-certified psychiatrists. […] Medication doses remained fixed throughout the study.\nAfter complete description of the study, written informed consent was obtained from all participating patients. The double-blind, placebo-controlled, crossover study consisted of two random-order 6-week treatment arms (glycine 0.8 g/kg/day, or placebo), separated by a 2-week adjuvant treatment washout. Patients were assessed biweekly with the Positive and Negative Syndrome Scale (PANSS), Brief Psychiatric Rating Scale (BPRS), Simpson-Angus Rating Scale (SAS), and Abnormal Involuntary Movement Scale (AIMS) performed by one trained research psychiatrist, as previously described (3). CBC and SMA-20 measures were assessed biweekly throughout the study. Trough glycine and serine serum levels were assessed at baseline and at the end of the two treatment phases. Data were analyzed by repeated measures ANOVA with within group factor of study phase (glycine/placebo) and time within study phase (pre/post), and between group factor of treatment order."}, "schizophrenia patients [5]": {"system": "schizophrenia patients", "settings": "prior study, Heresco-Levy et al., 1999, Table 3, cited from earlier work", "remark": "listed apart in the source"}, "[6]": {"settings": "glycine 0.8 g/kg/day vs placebo, 6 weeks"}, "[7]": {"settings": "glycine 0.8 g/kg/day, week 6, mean, n=14"}, "[8]": {"settings": "glycine phase, baseline, mean, n=14"}, "[9]": {"settings": "mean (sd), reduction over 6 weeks of glycine 0.8 g/kg/day"}, "[10]": {"settings": "mean (sd), reduction over 6 weeks of glycine 0.8 g/kg/day, listed as glycine"}}, "note": "Like-named read-outs stand apart in the source and are kept apart here."}
{"smiles": "NCC(=O)O", "note": "[Glycine, glycine]", "values": [{"measurement": "Adverse effect leading to withdrawal during glycine administration", "setting": "[1]", "value": "mild upper gastrointestinal tract discomfort"}, {"measurement": "Number of VCM at baseline vs post-test day", "setting": "[2]; 2 weeks after acute glycine 1.6 g/kg, p<0.07, VCM returned to pre-treatment levels", "value": "did not differ significantly"}, {"measurement": "VCM frequency, glycine vs placebo group at test day", "setting": "[2]; glycine 1.6 g/kg intraperitoneal, acute, p<0.01", "value": "significantly lower VCM frequency"}, {"measurement": "Reduction in the number of VCM episodes", "setting": "[2]; glycine 1.6 g/kg intraperitoneal, test day vs baseline, 30-150 minutes after injection, p<0.001", "value": 82, "unit": "%"}, {"measurement": "AIMS score before glycine treatment", "setting": "schizophrenia patients [3]", "value": 1.9}, {"measurement": "AIMS score after glycine treatment", "setting": "schizophrenia patients [3]; not significant vs placebo", "value": 1.4}, {"measurement": "AIMS score decrease during glycine treatment", "setting": "[4]; 6 weeks glycine, vs 0.3 point increase during placebo, p<0.02", "value": 1.0, "unit": "point"}, {"measurement": "SAS score decrease during glycine treatment", "setting": "[4]; 6 weeks glycine, vs 0.5 point increase during placebo, p<0.05", "value": 1.3, "unit": "points"}, {"measurement": "AIMS, Effect size (d)", "setting": "[4]; [6]", "value": 0.6}, {"measurement": "BPRS Total, Effect size (d)", "setting": "[4]; [6]", "value": 1.6}, {"measurement": "PANSS Cognitive Symptoms, Effect size (d)", "setting": "[4]; [6]", "value": 0.9}, {"measurement": "PANSS Depression, Effect size (d)", "setting": "[4]; [6]", "value": 0.7}, {"measurement": "PANSS Excitement, Effect size (d)", "setting": "[4]; [6]", "value": 0.6}, {"measurement": "PANSS Negative Symptoms, Effect size (d)", "setting": "[4]; [6]", "value": 2.1}, {"measurement": "PANSS Positive Symptoms, Effect size (d)", "setting": "[4]; [6]", "value": 0.7}, {"measurement": "SAS, Effect size (d)", "setting": "[4]; [6]", "value": 0.6}, {"measurement": "AIMS, Score at Week 6", "setting": "[4]; [7]", "value": 2.6}, {"measurement": "BPRS Total, Score at Week 6", "setting": "[4]; [7]", "value": 36.6}, {"measurement": "PANSS Cognitive Symptoms, Score at Week 6", "setting": "[4]; [7]", "value": 17.9}, {"measurement": "PANSS Depression, Score at Week 6", "setting": "[4]; [7]", "value": 13.4}, {"measurement": "PANSS Excitement, Score at Week 6", "setting": "[4]; [7]", "value": 12.0}, {"measurement": "PANSS Negative Symptoms, Score at Week 6", "setting": "[4]; [7]", "value": 20.4}, {"measurement": "PANSS Positive Symptoms, Score at Week 6", "setting": "[4]; [7]", "value": 14.0}, {"measurement": "SAS, Score at Week 6", "setting": "[4]; [7]", "value": 4.0}, {"measurement": "PANSS Negative Symptoms, Score at Baseline", "setting": "[4]; glycine phase, baseline, mean, 14 inpatients on olanzapine or risperidone", "value": 24.6}, {"measurement": "AIMS, Score at Baseline", "setting": "[4]; [8]", "value": 3.6}, {"measurement": "BPRS Total, Score at Baseline", "setting": "[4]; [8]", "value": 42.6}, {"measurement": "PANSS Cognitive Symptoms, Score at Baseline", "setting": "[4]; [8]", "value": 19.1}, {"measurement": "PANSS Depression, Score at Baseline", "setting": "[4]; [8]", "value": 14.4}, {"measurement": "PANSS Excitement, Score at Baseline", "setting": "[4]; [8]", "value": 13.2}, {"measurement": "PANSS Positive Symptoms, Score at Baseline", "setting": "[4]; [8]", "value": 15.4}, {"measurement": "SAS, Score at Baseline", "setting": "[4]; [8]", "value": 5.3}, {"measurement": "AIMS, % Change during glycine", "setting": "[4]; [9]", "value": "32.2 (30.4) %"}, {"measurement": "BPRS Total, % Change during glycine", "setting": "[4]; [9]", "value": "13.7 (7.5) %"}, {"measurement": "PANSS Cognitive Symptoms, % Change during glycine", "setting": "[4]; [9]", "value": "9.2 (6.8) %"}, {"measurement": "PANSS Depression, % Change during glycine", "setting": "[4]; [9]", "value": "7.4 (17.1) %"}, {"measurement": "PANSS Excitement, % Change during glycine", "setting": "[4]; [9]", "value": "10.6 (20.9) %"}, {"measurement": "PANSS Negative Symptoms, % Change during glycine", "setting": "[4]; [9]", "value": "23.3 (8.4) %"}, {"measurement": "PANSS Positive Symptoms, % Change during glycine", "setting": "[4]; [9]", "value": "11.4 (11.7) %"}, {"measurement": "SAS, % Change during glycine", "setting": "[4]; [9]", "value": "17.9 (40.1) %"}, {"measurement": "AIMS, % Change during glycine", "setting": "[4]; [10]", "value": 32.2, "unit": "%"}, {"measurement": "SAS, % Change during glycine", "setting": "[4]; [10]", "value": 18, "unit": "%"}, {"measurement": "SAS score before glycine treatment", "setting": "schizophrenia patients [5]", "value": 1.3, "unit": "points"}, {"measurement": "SAS score after glycine treatment", "setting": "schizophrenia patients [5]; not significant vs placebo", "value": 0.6, "unit": "points"}]}
